Laboratory results published in US9884012B2, “Use of PEDF-derived polypeptides for promoting muscle or tendon regeneration or arteriogenesis” (MacKay Memorial Hospital, priority 2012, dated 2018).

Columns and labels:
[1] = test system: soleus muscle (muscle fibers, satellite cells); assay: bupivacaine myonecrosis model, BrdU and Pax7 labeling of soleus muscle; type: in vivo, Sprague-Dawley rats; details: soleus muscle after bupivacaine injection; for BrdU Labeling Index (%): 50 μl sustained-release formulation (Bolus: bolus 29-mer), single intramuscular injection; for Pax7 Labeling Index (%): sustained-release formulation (Bolus: bolus 29-mer)
Method: De-paraffinized tissue sections were blocked with 10% goat serum for 1 hour. Staining was done using primary antibodies against BrdU (1:50 dilution; GTX42641) or type I collagen 1A1 (1:50 dilution) overnight at 4° C., followed by incubation with the appropriate peroxidase-labeled donkey immunoglobulin for 30 min and then with chromogen substrate (3,3′-diaminobenzidine) for 2 min before counterstaining with hematoxylin. Quantification was estimated based on high quality images (1208×960 pixels) captured using a Nikon Eclipse 80i light microscope.
For the detection of cell expansion, BrdU was reconstituted in DMSO as stock (80 mM). 10 μl of BrdU mixed with 90 μl of PBS was intraperitoneally injected into the mouse 16 hours prior to euthanasia. Also, 150 μl of BrdU mixed with 350 μl of PBS was intraperitoneally injected into the rat 16 hours prior to euthanasia. DNA synthesis was assessed by BrdU labeling with anti-BrdU antibodies.
De-paraffinized tissue sections or 4% paraformaldehyde fixed rabbit tendon stem cells (TSCs) were blocked with 10% goat serum and 5% BSA for 1 hour. Double staining was done using primary antibodies against α-SMA (1:100 dilution), IB4 (5 μg/ml), Pax7 (1:100 dilution), nucleostemin (1:100 dilution) and type I collagen 1A1 (1:50) at 37° C. for 2 hours, followed by incubation with the appropriate rhodamine- or FITC-conjugated donkey IgG for 1 hour at RT. Nuclei were located by counterstaining with Hoechst 33258 for 7 minutes. Images were captured using a Zeiss epifluorescence microscope with a CCD camera.
(§1) To investigate the effects of the present PEDF peptides on muscle regeneration, a rat myonecrosis model of a single injection of bupivacaine into the soleus muscle was employed. Adult 10-week-old male Sprague-Dawley rats (initial body weight=312±11 g) were anesthetized by an intraperitoneal injection of a xylazine (10 mg/kg). Then, the soleus muscle was injured by unilaterally injecting 0.5 ml bupivacaine (AstraZeneca) with a disposable syringe with a 26-gauge needle. Briefly, the needle was inserted into the distal portion of the soleus muscle and then receded longitudinally to the proximal portion accompanying evenly bupivacaine solution injection. The solution was then injected throughout the entire length of the muscle as the needle was slowly withdrawn.
After bupivacaine injection, rats were divided equally (n=10/group) into four experimental groups and treated as follows. […]
Muscle regeneration involves proliferation of muscle fibers, or muscle cells. […] Detailed assay procedures are as described in “Materials and Methods.” The level of BrdU-positive cells was expressed as labeling index (%), which was computed as the number of labeled cells divided by the total number of cells. […]

[2] = test system: soleus muscle; assay: bupivacaine myonecrosis model, centrally nucleated muscle fibers; type: in vivo, Sprague-Dawley rats; details: for centrally nucleated fibers in regenerating muscle: 14 days after the bupivacaine injection, in words; for Centrally nucleated fibers (%): day 7 after the bupivacaine injection, soleus muscle, sustained-release formulation (Bolus: bolus 29-mer)
Method: To ascertain the number of centrally nucleated muscle fibers, sections were stained with H&E and then photographed as described above. At least 100 stained fibers were randomly chosen from each photo. Muscle fibers were judged centrally nucleated if one or more nuclei were not located at the periphery of the fiber. The data were expressed as a % of the total number of muscle fibers counted. Results were evaluated from 6 sections per muscle section, and 10 mice at each group.
as §1
(§2) After bupivacaine injection, rats were divided equally (n=10/group) into four experimental groups and treated as follows. In the blank control group, the mice were treated with 50 μl of blank alginate gel. In the treatments groups, the mice received 50 μl of the sustained-release formulation (29-mer or 20-mer). The mice in the bolus control group received the bolus formulation (29-mer). Treatments were applied by way of a single intramuscular injection to the soleus muscle immediately after the bupivacaine perfusion.
In the process of muscle regeneration, newly generated muscle fibers typically contain central located nuclei. […] Statistical analysis regarding the percentage of centrally nucleated fibers was performed at day 7 after the bupivacaine injection, and the results were summarized in Table 6.

[3] = in vitro release of PEDF peptides from alginate gel in PBS; type: physicochemical; details: PBS pH 7.4, 37° C.; for peptide remained in the alginate gel matrix: after 24 hours, FITC-conjugated peptide in alginate hydrogel
Method: Each PEDF-derived short synthetic peptide (the 29-mer, 25-mer, 24-mer, 20-mer, 18-mer, MO 29-mer, or MO 20-mer; hereinbelow, PEDF peptide) was reconstituted in DMSO as stock (5 mM). Then, ultrapure alginate was mixed with the stock to obtain a 2% wt/vol alginate solution with PEDF peptide at a final concentration of 10 μM. The alginate solution was then filtered by membrane filter (pore size, 0.22 μm) and mixed with filtered calcium sulfate (0.21 g CaSO4/mL of dH2O) at a ratio of 25:1 (40 μL of CaSO4 per 1 mL of the filtered alginate solution). The mixture was let standing at RT for about 1 hour to allow for the cross-linking of the alginate. The resultant sustained-release formulation was then used in the treatment of muscle or tendon damage and ischemia.
To determine the release kinetics of 29-mer and 20mer, 100 μg of FITC-conjugated PEDF peptide was mixed with 100 μL alginate solution, and then hydrogels were prepared as set forth in the “Materials and Methods” section. Thereafter, 100 mg hydrogel was incubated in 1.5 ml of PBS (pH 7.4) in microcentrifuge tube and placed in an orbital shaking incubator over a 6-day period at 37° C. The tube was centrifuged at each predetermined time point and then 200 μL of supernatant was removed and stored at −80° C. for further analysis, and 200 μL of fresh PBS was added to the tube to replace the supernatant withdrawn. The concentration of FITC-conjugated PEDF peptide present in the collected supernatants was determined using a fluorimeter in 96-well format. A known non-encapsulated FITC-peptide was used to generate a standard curve. Triplicate data were used for analysis.

[4] = test system: soleus muscle; assay: bupivacaine myonecrosis model, muscle fiber size (minimal Feret's diameter); type: in vivo, Sprague-Dawley rats; details: 14 days after injury; for diameters of muscle fibers on average versus blank or bolus control group: in words
Method: The muscle fiber size was determined on H&E-stained muscle cross section and quantified using the minimum distance of parallel tangents at opposing particle borders (minimal “Feret's diameter”). Pictures were captured using a Nikon Eclipse 80i light microscope, and the minimal Feret's diameter was measured using the Image-Pro Plus 4.5.1 software (Media Cybernetics). Normalization of the number of fibers in each fiber Feret class of 5 μm was based on the total number of muscle fibers in each picture.
as §1, §2
In the later stage of muscle regeneration, newly generated muscle fibers start to gain size. Muscle specimens were collected at 14 days after injury, and respective fiber diameters were measured in accordance with the procedure set forth in the section of “Materials and Methods.” Results were summarized in FIG. 9.

| Sequence | BrdU Labeling Index (%) [1] [%] | Pax7 Labeling Index (%) [1] [%] | centrally nucleated fibers in regenerating muscle [2] | Centrally nucleated fibers (%) [2] [%] | peptide remained in the alginate gel matrix [3] | peptide released from alginate gel ([3]; in the first 3 days) | diameters of muscle fibers on average versus blank or bolus control group [4] | muscle fibers with a minimal Feret's diameter between 15-25 μm ([4]; sustained-release formulation) | peptide released from alginate gel ([3]; within the first 4 days) [%] |
| --- | --- | --- | --- | --- | --- | --- | --- | --- | --- |
| SLGAEQRTESIIHRALYYDL [20-mer, synthetic peptide corresponding to residues 93-112 of human PEDF] | 13.6 ± 3.0 | 14.6 ± 1.9 | much less centrally nucleated fibers | 63.3 ± 7.4 | ~35% | about 90% | larger | about 56.6% | – |
| SLGAEQRTESIIHRALYYDLISSPDIHGT [29-mer, synthetic peptide corresponding to residues 93-121 of human PEDF] | 15.4 ± 1.7 | 16.2 ± 2.0 | much less centrally nucleated fibers | 75.2 ± 7.0 | approximately 48% | – | larger | – | 90 |
